Measured values as given in patent publication US20260092074A1, “Annelated Pyridines as Steroidogenesis Inhibitors, Preparation Method and Use Thereof” (Guangzhou Vinnocent Pharmaceutical Limited, priority 2022, published 2026).

Key:
human CYP11B1 = target: T1, human CYP11B1 (Homo sapiens, UniProt P15538); test: Inhibition of hCYP11B1 in transfected V79 cells; type: cell-based; details: hamster V79 cells expressing human CYP11B1; substrate 11-deoxycortisol 200 nM
T1 construct: expressed in transfected cells
T1 sequence (P15538 25-503): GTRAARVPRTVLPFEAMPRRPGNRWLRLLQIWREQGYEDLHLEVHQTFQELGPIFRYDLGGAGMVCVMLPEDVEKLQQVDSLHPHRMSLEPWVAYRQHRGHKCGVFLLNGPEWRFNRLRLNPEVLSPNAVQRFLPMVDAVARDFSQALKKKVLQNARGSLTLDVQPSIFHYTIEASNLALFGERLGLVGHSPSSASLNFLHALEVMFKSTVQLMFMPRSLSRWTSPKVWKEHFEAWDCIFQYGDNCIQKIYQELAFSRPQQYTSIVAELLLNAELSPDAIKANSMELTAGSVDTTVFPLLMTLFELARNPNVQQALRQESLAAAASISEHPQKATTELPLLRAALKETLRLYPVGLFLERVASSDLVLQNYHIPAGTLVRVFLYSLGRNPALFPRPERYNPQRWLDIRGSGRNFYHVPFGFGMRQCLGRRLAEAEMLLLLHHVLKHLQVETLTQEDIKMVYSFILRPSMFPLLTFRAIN
Procedure, shortened: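 V79 hamster cells stably expressing human CYP11B1 and rat NADPH-P450 reductase were preincubated with compounds for 2 h. 11-Deoxycortisol (200 nM) was then added as substrate for 30 min before ethyl acetate quench. Substrate and product were quantified by LC-MS/MS or HPLC at 260 nm, and IC50 was derived from percent inhibition.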

human CYP11B2 = target: T2, human CYP11B2 (Homo sapiens, UniProt P19099); test: Inhibition of hCYP11B2 in transfected V79 cells; type: cell-based; details: hamster V79 cells expressing human CYP11B2; substrate 11-deoxycorticosterone 200 nM
T2 construct: expressed in transfected cells
T2 sequence (P19099 25-503): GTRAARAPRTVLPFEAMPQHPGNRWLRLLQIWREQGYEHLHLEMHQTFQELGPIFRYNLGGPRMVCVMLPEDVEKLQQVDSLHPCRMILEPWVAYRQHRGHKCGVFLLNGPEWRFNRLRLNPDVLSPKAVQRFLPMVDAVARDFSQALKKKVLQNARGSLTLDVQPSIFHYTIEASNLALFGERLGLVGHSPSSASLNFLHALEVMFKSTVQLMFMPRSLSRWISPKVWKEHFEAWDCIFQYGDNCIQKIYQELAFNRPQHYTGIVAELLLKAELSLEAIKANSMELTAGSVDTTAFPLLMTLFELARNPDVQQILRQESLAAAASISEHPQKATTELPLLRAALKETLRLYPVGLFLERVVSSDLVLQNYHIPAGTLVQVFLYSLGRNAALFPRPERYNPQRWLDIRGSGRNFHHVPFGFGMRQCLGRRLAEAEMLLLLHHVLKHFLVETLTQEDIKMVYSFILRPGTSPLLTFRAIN
Procedure, shortened: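 Hamster V79 cells stably co-expressing human CYP11B2 and rat NADPH-P450 reductase were pre-incubated with compounds for 2 hours, then given 200 nM 11-deoxycorticosterone for 30 minutes before ethyl acetate quench. Substrate and product were quantified by LC-MS/MS or HPLC at 260 nm, and IC50 was derived from percent inhibition.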

Row | Structure (SMILES) | IC50 (human CYP11B1) | IC50 (human CYP11B2)
1 | N#Cc1ccc(-c2cncc3c2CCN3S(=O)(=O)c2cccc([N+](=O)[O-])c2)cc1 [C9, 4-(1-((3-Nitrophenyl)sulfonyl)-2,3-dihydro-1H-pyrrolo[2,3-c]pyridin-4-yl)benzonitrile] | 0.5 nM | 0.3 nM
2 | COc1cccc(CC(=O)N2CCc3c(-c4ccc(C#N)cc4)cncc32)c1 [C68, 4-(1-(2-(3-Bethoxyphenyl)acetyl)-2,3-dihydro-1H-pyrrolo[2,3-c]pyridin-4-yl)benzonitrile] | 26 nM | 0.7 nM
3 | N#Cc1ccc(-c2cncc3c2OCCN3S(=O)(=O)C2CN(S(=O)(=O)c3cccc(F)c3)C2)cc1 [O117, 4-(4-((1-((3-Fluorophenyl)sulfonyl)azetidin-3-yl)sulfonyl)-3,4-dihydro-2H-pyrido[4,3-b][1, 4]oxazin-8-yl)benzonitrile] | 45 nM | 2.4 nM
4 | N#Cc1ccc(C(=O)N2CCSc3c(-c4ccc(C#N)cc4)cncc32)cc1 [S94, 4-(4-(4-Cyanobenzoyl)-3,4-dihydro-2H-pyrido[4,3-b][1,4]thiazin-8-yl)benzonitrile] | 2660 nM | 38 nM
5 | N#Cc1ccc(CN2CC(C(=O)N3CCOc4c(-c5ccc(C#N)cc5)cncc43)C2)cc1 [O81, 4-(4-(1-(4-Cyanobenzyl)azetidine-3-carbonyl)-3,4-dihydro-2H-pyrido[4,3-b][1,4]oxazin-8-yl)benzonitrile] | 72 nM | 0.6 nM
6 | Cn1ncc2cc(-c3cncc4c3CCN4C(=O)c3ccccc3F)ccc21 [C51, (2-Fluorophenyl)(4-(1-methyl-1H-indazol-5-yl)-2,3-dihydro-1H-pyrrolo[2,3-c]pyridin-1-yl)methanone] | 4250 nM | 23 nM
7 | O=C(C1CN(Cc2cccc(F)c2)C1)N1CCOc2c(N3CCn4ccnc4C3)cncc21 [O137, (8-(5,6-Dihydroimidazo[1,2-a]pyrazin-7 (8H)-yl)-2,3-dihydro-4H-pyrido[4,3-b][1,4]oxazin-4-yl)(1-(3-fluorobenzyl)azetidin-3-yl)methanone] | 3960 nM | 57 nM
8 | COc1cccc(C(=O)N2CC(S(=O)(=O)N3CCOc4c(-c5ccc(C#N)cc5)cncc43)C2)c1 [O112, 4-(4-((1-(3-Methoxybenzoyl)azetidin-3-yl)sulfonyl)-3,4-dihydro-2H-pyrido[4,3-b][1,4]oxazin-8-yl)benzonitrile] | 169 nM | 27 nM
9 | N#Cc1ccc2oc(-c3cncc4c3OCCN4)cc2c1 [O109, 2-(3,4-Dihydro-2H-pyrido[4,3-b][1,4]oxazin-8-yl)benzofuran-5-carbonitrile] | 376 nM | 4.8 nM
10 | O=S(=O)(C1CN(C2COC2)C1)N1CCSc2c(-c3cc4cc(Cl)ccc4o3)cncc21 [S103, 8-(5-Chlorobenzofuran-2-yl)-4-((1-(oxetan-3-yl)azetidin-3-yl)sulfonyl)-3,4-dihydro-2H-pyrido[4,3-b][1,4]thiazine] | 955 nM | 5 nM
11 | N#Cc1ccc(-c2cncc3c2CCN3S(=O)(=O)c2ccc3ccccc3c2)cc1 [C12, 4-(1-(Naphthalen-2-ylsulfonyl)-2,3-dihydro-1H-pyrrolo[2,3-c]pyridin-4-yl)benzonitrile] | 0.3 nM | 0.17 nM
12 | N#Cc1ccc(-c2cncc3c2ccn3S(=O)(=O)c2ccc(C#N)cc2)cc1 [E14, 4-((4-(4-Cyanophenyl)-1H-pyrrolo[2,3-c]pyridin-1-yl)sulfonyl)benzonitrile] | 0.5 nM | 0.08 nM
13 | Cn1c(=O)c(=O)[nH]c2cncc(-c3ccc(F)cc3)c21 [N2, 8-(4-Fluorophenyl)-1-methyl-1,4-dihydropyrido[3,4-b]pyrazine-2,3-dione] | 746 nM | 593 nM
14 | N#Cc1ccc(-c2cncc3c2OCCN3C(=O)Cc2cccc(C(F)(F)F)c2)cc1 [O46, 4-(4-(2-(3-(Trifluoromethyl)phenyl)acetyl)-3,4-dihydro-2H-pyrido[4,3-b][1,4]oxazin-8-yl)benzonitrile] | 240 nM | 5.7 nM
15 | COc1ccc(C(=O)N2CCSc3c(-c4ccc(C#N)cc4)cncc32)cc1 [S97, 4-(4-(4-Methoxybenzoyl)-3,4-dihydro-2H-pyrido[4,3-b][1,4]thiazin-8-yl)benzonitrile] | 4210 nM | 21 nM
16 | N#Cc1ccc(-c2cncc3c2CCN3C(=O)c2ccccc2C(F)(F)F)cc1 [C32, 4-(1-(2-(Trifluoromethyl)benzoyl)-2,3-dihydro-1H-pyrrolo[2,3-c]pyridin-4-yl)benzonitrile] | 233 nM | 18 nM
17 | N#Cc1ccc(-c2cncc3c2OCCN3C(=O)c2ccccc2F)cc1 [O21, 4-(4-(2-Fluorobenzoyl)-3,4-dihydro-2H-pyrido[4,3-b][1,4]oxazin-8-yl)benzonitrile] | 1130 nM | 26.1 nM
18 | N#Cc1ccc(-c2cncc3c2SCCN3S(=O)(=O)C2CN(S(=O)(=O)c3cccc(C#N)c3)C2)cc1 [S77, 3-((3-((8-(4-Cyanophenyl)-2,3-dihydro-4H-pyrido[4,3-b][1,4]thiazin-4-yl)sulfonyl)azetidin-1-yl)sulfonyl)benzonitrile] | 32 nM | 0.8 nM
19 | N#Cc1ccc(-c2cncc3c2OCCN3C(=O)Cc2ccc(C(F)(F)F)cc2)cc1 [O45, 4-(4-(2-(4-(Trifluoromethyl)phenyl)acetyl)-3,4-dihydro-2H-pyrido[4,3-b][1,4]oxazin-8-yl)benzonitrile] | 614 nM | 15.1 nM
20 | O=C(c1ccc(F)cc1)n1ccc2c(-c3ccn4ccnc4c3)cncc21 [E39, (4-Fluorophenyl)(4-(imidazo[1,2-a]pyridin-7-yl)-1H-pyrrolo[2,3-c]pyridin-1-yl)methanone] | 678 nM | 12 nM
21 | N#Cc1ccc(S(=O)(=O)N2CCSc3c(-c4cc5cc(Cl)ccc5o4)cncc32)cc1 [S41, 4-((8-(5-Chlorobenzofuran-2-yl)-2,3-dihydro-4H-pyrido[4,3-b][1,4]thiazin-4-yl)sulfonyl) benzonitrile] | 99 nM | 0.4 nM
22 | N#Cc1ccc(-c2cncc3c2OCCN3C(=O)c2cccc(C(F)(F)F)c2)cc1 [O25, 4-(4-(3-(Trifluoromethyl)benzoyl)-3,4-dihydro-2H-pyrido[4,3-b][1,4]oxazin-8-yl)benzonitrile] | 476 nM | 18.1 nM
23 | N#Cc1ccc(-c2cncc3c2SCCN3Cc2cccc(F)c2)cc1 [S1, 4-(4-(3-Fluorobenzyl)-3,4-dihydro-2H-pyrido[4,3-b][1,4]thiazin-8-yl)benzonitrile] | > 5000 nM | 451 nM
24 | O=C(C1CN(Cc2cccc(F)c2)C1)N1CCOc2c(-c3cc4cc(Cl)ccc4o3)cncc21 [O95, (8-(5-Chlorobenzofuran-2-yl)-2,3-dihydro-4H-pyrido[4,3-b][1,4]oxazin-4-yl)(1-(3-fluorobenzyl)azetidin-3-yl)methanone] | 4590 nM | 41 nM
25 | N#Cc1ccc(S(=O)(=O)N2CCSc3c(-c4ccc5ncsc5c4)cncc32)cc1 [S46, 4-((8-(Benzo[d]thiazol-6-yl)-2,3-dihydro-4H-pyrido[4,3-b][1,4]thiazin-4-yl)sulfonyl)benzonitrile] | 322 nM | 2.8 nM
26 | COc1ccc(CC(=O)N2CCOc3c(-c4ccc(C#N)cc4)cncc32)cc1 [O40, 4-(4-(2-(4-Methoxyphenyl)acetyl)-3,4-dihydro-2H-pyrido[4,3-b][1,4]oxazin-8-yl)benzonitrile] | 73 nM | 0.8 nM
27 | O=C(c1ccccc1F)N1CCc2c(-c3cccc([N+](=O)[O-])c3)cncc21 [C53, (2-Fluorophenyl)(4-(3-nitrophenyl)-2,3-dihydro-1H-pyrrolo[2,3-c]pyridin-1-yl)methanone] | 378 nM | 11 nM
28 | N#Cc1ccc(S(=O)(=O)N2CCOc3c(-c4ccc5c(c4)NC(=O)C5)cncc32)cc1 [O132, 4-((8-(2-Oxoindolin-6-yl)-2,3-dihydro-4H-pyrido[4,3-b][1,4]oxazin-4-yl)sulfonyl)benzonitrile] | 168 nM | 5.4 nM
29 | N#Cc1ccc(-c2cncc3c2OCCN3C(=O)Cc2cccc(F)c2)cc1 [O37, 4-(4-(2-(3-Fluorophenyl)acetyl)-3,4-dihydro-2H-pyrido[4,3-b][1,4]oxazin-8-yl)benzonitrile] | 86 nM | 1.4 nM
